We go through one compound from patent US8653023B1, “Dual beneficial effect of dopamine enhancing and neuroprotective actions of PKC delta inhibitors for treatment of Parkinson's disease” (Iowa State University Research Foundation, Inc., priority 2006, dated 2014).

One assay addresses T1, PKCδ (Mus musculus, UniProt P28867).
T1 construct: PKCδ was immunoprecipitated from SN lysates of both rottlerin-mice and vehicle-mice using PKCδ specific polyclonal antibody; from tissue; host or cells: substantia nigra of C57 black mice
The assay is described as follows: PKCδ immunoprecipitation kinase assay on substantia nigra of rottlerin-treated mice. The class given is in vivo. Conditions: 5 days.

Assay [1] has as its system MPTP-treated C57 black mice. The assay is described as follows: Locomotor activity of MPTP-treated mice (VersaMax). The class given is in vivo. Conditions: rottlerin 20 mg/kg + MPTP 30 mg/kg 5 days. An excerpt: Behavioral data were collected using VersaMax Animal Activity Monitors (AccuScan Model RXYZCM-16, Columbus, Ohio). Each chamber was 40×40×30.5 cm^3, made of clear Plexiglas and covered with a Plexiglas lid with air-holes. Infrared monitoring sensors were located every 2.54 cm along the perimeter (16 infrared beams along each side) and 2.5 cm above the floor. Two additional sets of 16 sensors were located 8.0 cm above the floor on opposite sides. Data were collected and analyzed by a VersaMax Analyzer (AccuScan Model CDA-8, Columbus, Ohio) which in turn sent information to an IBM computer where it was stored for future analyses. Locomotor activity was presented as horizontal movement and vertical movement. All data are expressed as percent of the vehicle-treated control group (mean 6 SEM) and were obtained 1 day after MPTP or vehicle treatment in a 20-min test session.

For assay [2], the system named is tyrosine hydroxylase (TH). The assay is described as follows: TH-ser40 phosphorylation in primary mesencephalic neurons (immunofluorescence). The class given is cell-based, mouse. Conditions: PKCδ (+/+) primary neuronal cultures, 3 μM rottlerin for 3 hr. On the procedure:
PC12 and N27 cells were cultured as described earlier (Anantharam et al., 2002; Kaul et al., 2003). Briefly, cells were grown in RPMI 1640 medium containing 10% fetal bovine serum, 2 mM L-glutamine, 50 units of penicillin, and 50 μg/ml streptomycin. Cells were maintained in a humidified atmosphere of 5% CO2 at 37° C. N27 cells were differentiated with 2 mM dibutyryl cAMP for 3-5 days and then used for experiments described below. Primary mesencephalic neuronal cultures were prepared from the ventral mesencephalon of gestational 16-18-day-old mice embryos as described previously (Yang et al., 2004). Mesencephalic tissues were dissected and maintained in ice-cold Ca^2+-free HESS and then dissociated in HBSS solution containing trypsin-EDTA (0.25%) for 20 min at 37° C. The dissociated cells were then plated at equal density (0.5×10^6 cells) in 30-mm-diameter tissue culture wells precoated with poly-L-lysine (1 mg/ml). […]
Plasmid pPKCδ^K376R-V5 encodes the loss of function PKCδ-V5 epitope tagged mutant protein; K376R refers to the mutation of the lysine residue at position 376 to arginine in the catalytic site resulting in inactivation of the kinase. […] Transfection efficiency was >75% as determined by immunostaining of V5-expression. […]

A further assay deals with cells. Conditions: cited from earlier work.
In the next assay the test system is NZM mice. Conditions: in vivo treatment; cited from earlier work.

T1 sequence (P28867 whole entry): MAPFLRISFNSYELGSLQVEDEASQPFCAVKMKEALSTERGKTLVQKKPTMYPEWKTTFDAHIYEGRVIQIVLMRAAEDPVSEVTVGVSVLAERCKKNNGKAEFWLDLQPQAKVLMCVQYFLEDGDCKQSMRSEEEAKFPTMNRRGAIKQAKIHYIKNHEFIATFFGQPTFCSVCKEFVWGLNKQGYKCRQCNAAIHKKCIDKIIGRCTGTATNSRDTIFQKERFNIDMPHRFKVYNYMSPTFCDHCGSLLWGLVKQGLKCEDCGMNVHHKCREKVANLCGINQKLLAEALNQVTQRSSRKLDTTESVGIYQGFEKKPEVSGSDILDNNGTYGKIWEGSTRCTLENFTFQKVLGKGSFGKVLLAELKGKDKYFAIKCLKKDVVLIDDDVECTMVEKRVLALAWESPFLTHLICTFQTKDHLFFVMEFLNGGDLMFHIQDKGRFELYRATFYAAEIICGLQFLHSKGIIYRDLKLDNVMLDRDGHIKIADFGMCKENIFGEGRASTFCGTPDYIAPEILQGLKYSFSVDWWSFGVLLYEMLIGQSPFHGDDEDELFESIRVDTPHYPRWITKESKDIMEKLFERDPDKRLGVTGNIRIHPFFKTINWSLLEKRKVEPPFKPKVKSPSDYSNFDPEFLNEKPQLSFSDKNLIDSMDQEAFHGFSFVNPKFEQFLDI
Experimental for PKCδ: Rottlerin was dissolved in 1% dimethyl sulfoxide (DMSO) and was administered intraperitoneally at various doses. An equal volume of DMSO was given to controls.
PKCδ enzymatic activity was assayed using an immunoprecipitation kinase assay as described by Reyland et al. (Reyland, Anderson et al. 1999). Briefly, after treatment with rottlerin, substantia nigra brain tissue were washed once with PBS and resuspended in 1 ml of PKC lysis buffer (25 mM HEPES, pH 7.5, 20 mM β-glycerophosphate, 0.1 mM sodium orthovanadate, 0.1% Triton X-100, 0.3 M NaCl, 1.5 mM MgCl2, 0.2 mM EDTA, 0.5 mM DTT, 10 mM NaF, and 4 μg/ml each aprotonin and leupeptin). The lysates were allowed to sit on ice for 30 min and centrifuged at 13,000×g for 5 min, and the supernatants were collected as cytosolic fraction. Protein concentration was determined using a Bradford assay. Cytosolic protein (0.25-0.5 mg) was immunoprecipitated overnight at 4° C. using 2 μg of anti-PKCδ antibody. The immunoprecipitates were then incubated with Protein-A Sepharose (Sigma) for 1 hr at 4° C. The protein A bound antigen-antibody complexes were then washed three times with PKC lysis buffer, three times with 2× kinase buffer (40 mM Tris, pH 7.4, 20 mM MgCl2, 20 μM ATP, and 2.5 mM CaCl2), and resuspended in 20 μl of 2× kinase buffer. Reaction was started by adding 20 μl of reaction buffer containing 0.4 mg Histone H1, 50 μg/ml phosphatidylserine, 4.1 μM dioleoylglycerol, and 5 μCi of [γ-^32P] ATP (3000 Ci/mM) to the immunoprecipitated samples and incubated for 10 min at 30° C. SDS gel-loading buffer (2×) was added to terminate the reaction, the samples were boiled for 5 min, and the products were separated on a 12.5% SDS-PAGE gel. The H1 phosphorylated bands were detected using a Personal Molecular Imager (FX model; Bio-Rad), and quantification was done using Quantity One 4.2.0 software.

With `CC(=O)c1c(O)c(C)c(O)c(Cc2c(O)c3c(c(C(=O)/C=C/c4ccccc4)c2O)OC(C)(C)C=C3)c1O` [rottlerin], the “reduction in the kinase activity in SN” value at PKCδ (i.p. injection with 3 mg rottlerin) and on PKCδ (i.p. injection with 7 mg rottlerin) was “more than 30%” in each case. For the same compound, the entries for the “decrease in protein kinase activity in SN (phosphorylated histone H1 bands)” value on PKCδ (orally treated with 10 mg rottlerin) and on PKCδ (orally treated with 20 mg rottlerin) were 40% and 50%, respectively. For the same compound, in assay [1], the “horizontal movement, percent of vehicle-treated control” value is given as 76.93%. The “vertical movement, percent of vehicle-treated control” value in assay [1] worked out at 79%. For the same compound, the “TH-ser40 fluorescent intensity, increase” value in assay [2] was determined as 4 fold. For the same compound, the asbestos-induced apoptosis entry with cells is given as “inhibited”. In addition, in the assay with NZM mice, the “exacerbation of autoimmunity by silica exposure” value is reported as “significantly decreased”.
